According to patent US9226950B2, “Method and composition for treating diabetes mellitus” (National Dong Hwa University, priority 2013, dated 2016):

Assays:
GLUT4 = GLUT4 translocation assay in differentiated C2C12 myotubes; assay type: cell-based, mouse; details: FIG. 3
Method: Mouse muscle myoblast cells (C2C12) were obtained from the Food Industry Research and Development Institute (FIRDI, Hsinchu, Taiwan). The cells were grown and maintained in Dulbecco's Modified Eagle's Medium high glucose (DMEM-high glucose; GIBCO, CA, USA) containing 10% fetal bovine serum (FBS, GIBCO) and 1% penicillin streptomycin (GIBCO) in a cell culture incubator with 5% CO2 at 37° C. Prior to the following experiments, the cells were seeded and cultured at a density of 8×10^3 cells per well in 96-well plates or 2.5×10^5 cells per well in 6-well plates. […]
The C2C12 cells were fully differentiated with DMEM supplemented with 1% FBS and 1% horse serum for 4 days. […] The translocation changes of GLUT4 of the cells were detected. […] The HRP activity was determined by measuring the absorbance at 450 nm with a spectrophotometer (EnSpire 2300 Multilabel Reader, Perkin Elmer, Waltham, Mass., USA).
To detect the effect of tetracosanol on Glut4 translocation in S961-induced insulin resistance, the differentiated C2C12 cells were treated with or without 20 nM S961 (S961) followed by 185 μM of insulin (Ins), and treated with or without 100 μM of Tetracosanol (Tet) (n=4 in each group). […] At the cellular level, the ability of glucose uptake was determined by controlling the amount of the GLUT4 glucose transporter present in the plasma membrane. […]

[1] = test system: S961-induced hyperglycemic mice (DM mice); assay: Oral glucose tolerance test (OGTT) in S961-induced hyperglycemic mice; assay type: in vivo, C57BL/6 mouse; details: D-glucose 2 g/kg
Method: Animal experiments were approved by the National Dong-Hwa University Animal Ethics Committee and were used according to the “Guide for the Care and Use of Laboratory Animals” of National Dong-Hwa University. The C57BL/6 mouse were obtained National Laboratory Animal Center (Taipei, Taiwan) and kept at controlled environmental conditions with room temperature (22±2° C.) and humidity (50±10%). The 12 hr light (0600 am-1800 pm) and 12 hr dark cycle was maintained throughout the study. Mice had free access to food and water and maintained on a standard laboratory diet (containing carbohydrates: 60%, proteins: 28%, lipids: 12%, and vitamins: 3%).
The 8 weeks old male C57 BL/6 mice after fasting 12 hr were used in this test. The mice were orally administered (p.o.) with tetracosanol (dissolved in PEG and EtOH, 25 mg/kg Bwt) or Metformin (100 mg/kg Bwt) for 3 hr. To investigate the effect of tetracosanol on the DM mice, the mice were intraperitoneally injected (i.p.) with S961 (50 nmol/kg Bwt) to induce hyperglycemia, prior to the administration of D-glucose (2 g/kg Bwt, p.o.). At approximately the 0, 30, 60, 90, and 120 min., the blood of each mouse was sampled by venipuncture from the tail vein for the determination of blood glucose. Blood glucose was immediately determined by the glucose oxidase method using glucose analyzer (Accu-Chek, Roche).
To investigate the glycemic control effect of tetracosanol on the hyperglycemic mice, hyperglycemic mice were induced by insulin receptor antagonist-S961. The mice of each group were treated with or without Metformin (Met) as positive control, or treated with or without tetracosanol (Tet). Then, all the groups were administered with D-glucose (2 g/kg Bwt) (n=6 in each group). The tetracosanol for glycemic control was confirmed by OGTT.
8 weeks old male C57 BL/6 mice after fasting 12 hr were employed in this study. […] The blood glucose was determined by the glucose oxidase method using glucose analyzer (Accu-Chek, Roche). […]

Compound: CCCCCCCCCCCCCCCCCCCCCCCCO [tetracosanol]
- insulin-dependent GLUT4 translocation (GLUT4; insulin resistance C2C12 differentiated myotubes induced by 20 nM S961, insulin plus tetracosanol (100 μM)): provided the recovery ability
- insulin-dependent GLUT4 translocation (GLUT4; normal C2C12 differentiated myotubes (Ins), 100 μM tetracosanol, 185 μM insulin): no effects
- blood glucose change in OGTT ([1]; DM mice (S961), p.o., comparison with metformin, FIG. 6(a)): even better than metformin
- blood glucose change in OGTT ([1]; tetracosanol 25 mg/kg Bwt p.o. versus Metformin 100 mg/kg Bwt, S961 50 nmol/kg i.p., FIG. 5(a)): profile similar to the treatment with metformin
- AUC of the blood glucose change in OGTT ([1]; tetracosanol 25 mg/kg Bwt p.o., DM mice (S961) and normal mice (Con), FIG. 5(b)): good efficacy in glycemic control
